From patent US20060149045A1, “Steroid compounds with anti-tumor activity” (priority 2002, published 2006)
pIC50: −log10 of the molar value.

Assays:
[1] = tested on: U-373 MG (Glioma cancer) cells; assay: Cell migration, phase-contrast video microscopy; assay type: cell-based, human
Experimental: (§1) Cells of different cancer lines, i.e. U-373 MG (Glioma cancer), Hs578T (breast cancer) and A549 (lung cancer) were seeded on culture flask 48 hours before the migration experiment. On the test day, cells were treated with or without compounds UBS881, UBS1664, UBS3285, UBS3327 and UBS3328 in closed Falcon dishes containing a buffered medium at a controlled temperature (37.0±0.1° C.) for 12 or 24 hours. The compounds were administered at two non-cytotoxic concentrations (10^−6 M and 10^−7 M) for UBS881 and UBS1664, and at 4 concentrations (10^−7 M to 10^−10 M) for UBS3285, UBS3327 and UBS3328. Migration of the cells was observed by means of a CCD-camera mounted on a phase-contrast microscope. A statistical analyse of the migration, with the non-parametric Mann-Whitney test, was established for 25% of the most motile cells and for the entire cell population for UBS881 and UBS1664, and established for 25%-50% of the most motile cells and for the entire cell population for UBS3285, UBS3327 and UBS3328 compounds. The table F below illustrates the anti-migratory effect of the compound according to the invention.

[2] = tested on: A549 (lung cancer) cells; assay: Cell migration, phase-contrast video microscopy; assay type: cell-based, human
Experimental: as §1

[3] = tested on: U-373 MG, Hs578T and/or A549 cancer cells; assay: Cell migration, summary over the cell lines; assay type: cell-based; conditions: at the weak studied concentrations; result in words
Experimental: as §1

[4] = tested on: six human cancer cell lines (Hs683, U-373 MG, HCT-15, LoVo, A549, J82); assay: MTT test, summary over the six cell lines; assay type: cell-based; conditions: for cytotoxic / anti-tumor activity on the 6 tested cell lines: result in words, FIGS. 3, 4 and 6
Experimental: In order to characterize the in vitro activities of the compounds according to the invention, MTT tests were carried out. The MTT test, which is a well-known test in the art, is an indirect technique that rapidly measures, i.e. within 5 days, the effect of a given product on the overall cell growth. This test measures the number of metabolically active living cells that are able to transform the MTT product (3-(4,5-dimethylthiazol-2-yl)-2,5 diphenyl tetrazolium bromide), having a yellowish color, to the blue product formazan dye by mitochondrial reduction. The amount of formazan obtained at the end of the experiment is measured with a spectrophotometer and is directly proportional to the number of living cells. Determination of the optical density enables a quantitative measurement of the effect of the investigated compounds as compared to the control condition (untreated cells) and to compare it to other reference compound. In the following examples different compounds according to the invention were tested and compared to the reference compound being UBS881.
Six human cancer cell lines, described in Table D, were tested in the presence of the extract according to the invention. These cell lines represent four histological cancer types, being glioma cancer (cell line Hs683 and U-373 MG), colon cancer (cell lineHCT-15 and LoVo), lung cancer (cell line A549) and bladder cancer (cell line J82). […]
After 72 hours of incubation at 37° C. with the compound (experimental conditions) or without the compound (control condition), the medium was replaced by 100 μl MTT at the concentration of 1 mg/ml dissolved in RPMI. […] The micro wells were shaken for 5 minutes and read on a spectrophotometer at the wavelengths of 570 nm corresponding to the maximum formazan absorbance wavelength, and of 630 nm, which is the background noise wavelength.
For each experimental condition, the mean OD associated with the SEM (standard error of the mean) for each condition (6 wells) was calculated. The percentage of remaining living cells in comparison with the control was calculated. […]

[5] = tested on: Hs578T (breast cancer) cells; assay: Cell migration, phase-contrast video microscopy; assay type: cell-based; conditions: for 24 hours on the 25% of most motile cells, at 10^−7 M
Experimental: as §1

[6] = for 24 hours on the 25% of most motile cells, at 10^−7 M

COc1ccc(OC)c(C2CC3C4CC(=O)C5=CC(=O)CCC5(C)C4CCC3(C)C2C(C)=O)c1 (centres unmarked) [UBS1664]
Max. effects (anti-migratory effect) [1, 6]: −27%/p < 0.001 | Max. effects (anti-migratory effect) ([2]; for 12 hours on the entire cell population, at 10^−7 M): −15%/p < 0.05 | migration level of cancer cells [3]: induced a decrease in the migration level | cytotoxic / anti-tumor activity on the 6 tested cell lines [4]: induced cytotoxic activity on all 6 tested cell lines

COc1ccc(OC)c(C(C)(O)C2CCC3C4CC=C5CC(O)CCC5(C)C4CCC32C)c1 (centres unmarked) [UBS1740]
cytotoxic / anti-tumor activity on the 6 tested cell lines [4]: Hs683 and A549 cell lines were most sensitive

COc1ccc(OC)c(C(C)(O)C2CCC3C4CC(=O)C5=CC(=O)CCC5(C)C4CCC32C)c1 (centres unmarked) [UBS1819]
pIC50 ([4]; Homo sapiens, 72 hours incubation, range over all 6 cell lines): 4.30 to 5.00

COc1ccc(OC)c(C2CC3C4CC=C5CC(OC6O[C@H](CO)[C@H](O)[C@H](O)[C@H]6O)CCC5(C)C4CCC3(C)C2C(C)=O)c1 (some centres unmarked) [UBS3285]
Max. effects (anti-migratory effect) ([1]; for 24 hours on the 50% of most motile cells, at 10^−8 M): −22%/p < 0.001 | migration level of cancer cells [3]: induced a decrease in the migration level

COc1ccc(OC)c(C2CC3C4CC=C5CC(OC6O[C@H](CO)[C@@H](O[C@@H]7O[C@H](CO)[C@@H](O)[C@H](O)[C@H]7O)[C@H](O)[C@H]6O)CCC5(C)C4CCC3(C)C2C(C)=O)c1 (some centres unmarked) [UBS3327]
Max. effects (anti-migratory effect) ([2]; for 24 hours on the 25% of most motile cells, at 10^−8 M): −34%/p < 0.001 | migration level of cancer cells [3]: induced a decrease in the migration level | Max. effects (anti-migratory effect) [5]: −21%/p < 0.001

COc1ccc(OC)c(C2CC3C4CC=C5CC(OC6O[C@H](CO[C@@H]7O[C@H](CO)[C@@H](O)[C@H](O)[C@H]7O)[C@@H](O)[C@H](O)[C@H]6O)CCC5(C)C4CCC3(C)C2C(C)=O)c1 (some centres unmarked) [UBS3328]
Max. effects (anti-migratory effect) ([1]; for 12 hours on the entire cell population, at 10^−10 M): −27%/p < 0.001 | Max. effects (anti-migratory effect) [2, 6]: −40%/p < 0.001 | migration level of cancer cells [3]: induced a decrease in the migration level
